Test results from US4985449A, “N-benzoyl-N-pyridyloxy phenyl urea compounds and pesticide compositions containing them” (Ishihara Sangyo Kaisha Ltd., priority 1986, dated 1991).
Each block holds one compound with its values, some of them ahead of it.

Key:
[1] = system: diamondback moth (Plutella xylostella); assay: Insecticidal test against diamondback moth (Test Example 2); assay type: in vivo; conditions: 168 h, second or third instar larvae, 7th day after release, 26° C.
Text: (§1) Each formulation containing an active ingredient was dispersed in water to obtain a dispersion of each active ingredient having a concentration of 10 ppm. Leaves of cabbage were dipped in the respective dispersions for about 10 seconds, and then dried in air. A sheet of moistened filter paper was placed in a Petri dish having a diameter of 9 cm, and the dried leaves of cabbage were put on the filter paper. Larvae of diamondback moth (Plutella xylostella) in second or third instar were released on the leaves, and the Petri dishes were covered and kept in a constant temperature chamber with lightening at a temperature of 26° C. On the 7th day after release, dead insects were counted, and the mortality was calculated by the following equation: […]

[2] = system: common cutworm (Spodoptera litura); assay: Insecticidal test against common cutworm (Test Example 3); assay type: in vivo; conditions: 168 h, second or third instar larvae, 7th day after release
Text: as §1
(§2) The tests were conducted in the same manner as in Test Example 2 except that larvae of common cutworm (Spodoptera litura) in second or third instar were used instead of larvae of the diamondback moth in second or third instar, and the concentration of the active ingredient was changed from 10 ppm to 800 ppm or 1 ppm.

[3] = system: Common cutworm; assay: Insecticidal test (C-value) against common cutworm (Test Example 7-I); assay type: in vivo; conditions: Spodoptera litura, 168 h; minimum concentration at which no less than 90% of insects are killed
Text: as §1, §2
(§3) In the same manner as in Test Examples 2 and 3, insecticidal tests against diamondback moth and common cutworm were conducted with respect to each compound, and the minimum concentrations at which no less than 90% of insects are killed (hereinafter referred to as C-value), were obtained.

[4] = system: Diamondback moth; assay: Insecticidal test (C-value) against diamondback moth (Test Example 7-I); assay type: in vivo; conditions: Plutella xylostella, 168 h; minimum concentration at which no less than 90% of insects are killed
Text: as §1, §3

[5] = system: Daphnia magna Straus; assay: Acute Immobilisation Test against Daphnia magna Straus (Test Example 7-II); assay type: in vivo; conditions: first instar larvae; up to 48 hours; 23±1° C.; OECD guideline; Probit method
Description: An acetone solution of each compound was dispersed in water to obtain test solutions having various concentrations of the active ingredient. 250 ml of each test solution was introduced into a 430 ml glass beaker. Into each beaker, 10 first instar larvae born within 24 hours were released and kept at the solution temperature of 23±1° C. The immobilisation up to 48 hours after the release of the larvae was investigated in accordance with the OECD test guideline. The test was repeated 2-3 times in two series for each concentration. The 50% immobilisation concentration (EC50, ppb) was obtained by Probit method.

[6] = Residual test in soil (Test Example 7-III); conditions: upland volcanic ash soil, irrigated condition; 5 ppm; 20 days; 30° C.
Description: Upland soil (volcanic ash soil) was screened through a sieve with a mesh size of 5 mm, and 20 g by dry weight basis of the soil was put into a 100 ml Erlenmeyer flask. Then, distilled water was introduced to simulate an irrigated condition with a water depth of 1 cm. An aluminum foil was put on the top of the flask, and the flask was left to stand still for 1 week in an incubator (dark place) at 30° C.
0.5 ml of a 200 ppm dispersion in acetone of each compound (100 μg) was added to the flask by means of a pipet (to a concentration of 5 ppm). The flask was closed and thoroughly shaked, and the soil attached to the closure was washed into the flask with a small amount of water. Then, the top of the flask was covered with an aluminum foil, and the flask was subjected to incubation in a growth cabinet (30° C., humidity: 60%, continuously lighted with a fluorescent lamp with 9,000 lux). 20 Days later, the total 20 g of the soil was subjected to analysis, and the remaining amount of the compound was measured.

[7] = system: house fly (Musca domestica); assay: Egg hatch inhibition test by the treatment of adults of house fly (Test Example 6); assay type: in vivo; conditions: po, 100 μg/g in diet of adult females for 3 days, unhatched eggs assessed one day after collection, read-out: ratio of the egg hatch inhibition (REHI)
Description: Sugar and skim milk were mixed in a weight ratio of 1:1, and 2 g of the mixture was put into a Petri dish having a diameter of 5.5 cm. 0.5 ml of an acetone solution containing the active ingredient was added to the mixture in the Petri dish. After acetone evaporated, the treated mixture was thoroughly mixed, and the concentration of the active ingredient was adjusted to 100 μg/g. Twenty non-mating females of house fly (Musca domestica) were allowed to feed on the poisoned diet (the treated mixture) in a cage. After 3 days, the diet was changed to the untreated mixture, then 20 non-mating males were released into the cage for mating. On the 3rd day after release, a cup of the medium for rearing fly larvae was set in the cage for oviposition for 7 hours. The egg laid on the medium were collected and kept on the moistened filter paper in a Petri dish. One day later, unhatched eggs were assessed and the ratio of the egg hatch inhibition (REHI) was calculated by the following equation: [formula]

[8] = system: two-spotted spider mite (Tetranychus urticae); assay: Miticidal test against two-spotted spider mite (Test Example 1); assay type: in vivo; conditions: 120 h, 200 ppm, 5th day after treatment, larvae and nimphs on French bean, 26° C.
Text: Each formulation containing an active ingredient was dispersed in water to obtain a dispersion of each active ingredient having a concentration of 800 or 200 ppm. Each of French bean seedlings with only on primary leaf left, was transplanted to a cup having a diameter of 7 cm and a height of 4 cm. About 30 larvae and […] of two-spotted spider mite (Tetranychus urticae) were infested to the leaf of the French bean. Then, the French bean was dipped in the dispersion having the concentration of 800 ppm or 200 ppm for about 10 seconds, then dried in air and kept in a constant temperature chamber with lightening at 26° C. On the 5th day after the treatment, dead mites were counted, and the mortality was calculated by the following equation: [formula]

Structure (SMILES): CN(C(=O)NC(=O)c1c(F)cccc1F)c1ccc(Oc2ccc(S(=O)(=O)C(F)(F)F)cc2)cc1 [compound 41]
- mortality at 10 ppm [1]: 100%

Structure (SMILES): Cc1ccccc1C(=O)NC(=O)N(C)c1ccc(Oc2ccc(C(F)(F)F)cc2Cl)c(F)c1 [compound 63]
- mortality at 1 ppm [2]: 100%

Structure (SMILES): CN(C(=O)NC(=O)c1ccccc1Br)c1ccc(Oc2ncc(C(F)(F)F)cc2Cl)cc1 [Compound No. 80]
- mortality at 1 ppm [2]: 100%

- Remaining rate in the soil [6]: 84%
Structure (SMILES): O=C(NC(=O)c1c(F)cccc1F)Nc1ccc(Oc2ccc(C(F)(F)F)cc2Cl)cc1 [drawing 48 (R=H), reference compound]
- minimal effective concentration [3]: 0.08 µg/mL
- minimal effective concentration [4]: 0.08 µg/mL
- EC50 of Daphnia magna Straus (50% immobilisation concentration) [5]: < 0.4 ppb

Structure (SMILES): Cc1cc(N(C)C(=O)NC(=O)c2c(F)cccc2F)cc(C)c1Oc1ccc(C(F)(F)F)cc1Cl [compound 65]
- mortality at 1 ppm [2]: 100%

Structure (SMILES): CN(C(=O)NC(=O)c1c(F)cccc1F)c1ccc(N(C)c2ncc(C(F)(F)F)cc2Cl)cc1 [compound 125]
- mortality at 10 ppm [1]: 100%
- mortality at 1 ppm [2]: 100%
- mortality at 800 ppm [2]: 100%

- Remaining rate in the soil [6]: 91%
Structure (SMILES): O=C(NC(=O)c1c(F)cccc1F)Nc1ccc(Oc2ccc(C(F)(F)F)cc2Cl)c(F)c1 [drawing 47 (R=H), reference compound]
- minimal effective concentration [3]: 0.04 µg/mL
- minimal effective concentration [4]: 0.08 µg/mL
- EC50 of Daphnia magna Straus (50% immobilisation concentration) [5]: < 0.4 ppb

Structure (SMILES): CN(C(=O)NC(=O)c1c(F)cccc1F)c1ccc(Oc2ccc(C(F)(F)F)cc2Cl)c(F)c1F [Compound No. 5, N-[4-(2-chloro-4-trifluoromethylphenoxy)-2,3-difluorophenyl]-N'-(2,6-difluorobenzoyl)-N-methylurea]
- inhibition at 100 µg/g [7]: 100%

Structure (SMILES): CN(C(=O)NC(=O)c1c(F)cccc1F)c1ccc(Oc2ccc(C(F)(F)F)cc2Cl)cc1 [Compound No. 18, N-[4-(2-chloro-4-trifluoromethylphenoxy)phenyl]-N'-(2,6-difluorobenzoyl)-N-methylurea]
- mortality at 200 ppm [8]: 100%

Structure (SMILES): Cc1ccccc1C(=O)NC(=O)N(C)c1cc(C)c(Oc2ccc(C(F)(F)F)cc2Cl)c(C)c1 [compound 66]
- mortality at 1 ppm [2]: 100%

Structure (SMILES): Cc1cc(-c2ccc(Br)cc2)ccc1N(C)C(=O)NC(=O)c1c(F)cccc1F [compound 109]
- mortality at 10 ppm [1]: 100%
- mortality at 1 ppm [2]: 100%
- mortality at 800 ppm [2]: 100%

Structure (SMILES): Cc1cc(Oc2ncc(C(F)(F)F)cc2Cl)ccc1N(C)C(=O)NC(=O)c1c(F)cccc1F [compound 20, N-[4-(3-chloro-5-trifluoromethyl-2-pyridyloxy)-2-methylphenyl]-N'-(2,6-difluorobenzoyl)-N-methylurea]
- inhibition at 100 µg/g [7]: 100%

Structure (SMILES): COc1cc(N(C)C(=O)NC(=O)c2c(F)cccc2F)ccc1Oc1ncc(C(F)(F)F)cc1Cl [compound 75]
- mortality at 10 ppm [1]: 90%
- mortality at 1 ppm [2]: 90%

Structure (SMILES): CN(C(=O)NC(=O)c1c(F)cccc1F)c1ccc(Oc2ccc([N+](=O)[O-])cc2Cl)cc1 [compound 62]
- mortality at 1 ppm [2]: 100%

Structure (SMILES): CN(C(=O)NC(=O)c1c(F)cccc1F)c1ccc(Oc2ccc(SC(F)(F)F)cc2)cc1 [compound 39]
- mortality at 10 ppm [1]: 100%

- Remaining rate in the soil [6]: 76%
Structure (SMILES): CN(C(=O)NC(=O)c1c(F)cccc1F)c1ccc(Oc2ccc(C(F)(F)F)cc2Cl)c(F)c1 [drawing 47 (R=CH3)]
- minimal effective concentration [3]: 0.04 µg/mL
- minimal effective concentration [4]: 0.08 µg/mL
- EC50 of Daphnia magna Straus (50% immobilisation concentration) [5]: 150 ppb

- Remaining rate in the soil [6]: 45%
Structure (SMILES): CN(C(=O)NC(=O)c1c(F)cccc1F)c1ccc(-c2ccc(Br)cc2)cc1 [drawing 49 (R=CH3)]
- minimal effective concentration [3]: 0.04 µg/mL
- minimal effective concentration [4]: 0.02 µg/mL
- EC50 of Daphnia magna Straus (50% immobilisation concentration) [5]: 150 ppb

Structure (SMILES): Cc1cc(N(C)C(=O)NC(=O)c2ccccc2Cl)ccc1Oc1ncc(C(F)(F)F)cc1Cl [compound 77, N-{4-[3-chloro-5-trifluoromethyl-2-pyridyloxy]-3-methylphenyl}-N'-(2-chlorobenzoyl)-N-methylurea]
- mortality at 10 ppm [1]: 100%

Structure (SMILES): Cc1cc(N(C)C(=O)NC(=O)c2ccccc2C)ccc1Oc1ccc(C(F)(F)F)cc1Cl [compound 64]
- mortality at 1 ppm [2]: 90%

Structure (SMILES): CN(C(=O)NC(=O)c1c(F)cccc1F)c1ccc(-c2ccc(C(F)(F)F)cc2)cc1 [compound 108]
- mortality at 10 ppm [1]: 100%
- mortality at 1 ppm [2]: 100%
- mortality at 800 ppm [2]: 100%

- Remaining rate in the soil [6]: 49%
Structure (SMILES): CN(C(=O)NC(=O)c1c(F)cccc1F)c1ccc(Oc2ccc(C(F)(F)F)cc2Cl)cc1 [drawing 48 (R=CH3)]
- minimal effective concentration [3]: 0.02 µg/mL
- minimal effective concentration [4]: 0.02 µg/mL
- EC50 of Daphnia magna Straus (50% immobilisation concentration) [5]: 50 ppb

Structure (SMILES): CN(C(=O)NC(=O)c1c(F)cccc1F)c1ccc(Oc2ncc(C(F)(F)F)cc2Cl)c(Cl)c1 [compound 15, N-[3-chloro-4-(3-chloro-5-trifluoromethyl-2-pyridyloxy)-phenyl]-N'-(2,6-difluorobenzoyl)-N-methylurea]
- inhibition at 100 µg/g [7]: 100%

- Remaining rate in the soil [6]: 77%
Structure (SMILES): O=C(NC(=O)c1c(F)cccc1F)Nc1ccc(-c2ccc(Br)cc2)cc1 [drawing 49 (R=H), reference compound]
- minimal effective concentration [3]: 0.6 µg/mL
- minimal effective concentration [4]: 0.3 µg/mL
- EC50 of Daphnia magna Straus (50% immobilisation concentration) [5]: < 0.8 ppb

Structure (SMILES): Cc1ccc(N(C)C(=O)NC(=O)c2c(F)cccc2F)cc1Oc1ccc(C(F)(F)F)cc1Cl [compound 115]
- mortality at 1 ppm [2]: 100%

Structure (SMILES): CN(C(=O)NC(=O)c1c(F)cccc1F)c1ccc(Oc2ncc(Cl)cc2C(F)(F)F)cc1 [compound 74]
- mortality at 1 ppm [2]: 100%

Structure (SMILES): CN(C(=O)NC(=O)c1c(F)cccc1F)c1ccc(-c2ccc(Br)cc2)cc1 [Compound No. 29, N-(4'-bromo-4-biphenylyl)-N'-(2,6difluorobenzoyl)-N-methylurea]
- mortality at 1 ppm [2]: 100%
- inhibition at 100 µg/g [7]: 100%

Structure (SMILES): CN(C(=O)NC(=O)c1c(F)cccc1F)c1ccc(N(C)c2ccc(C(F)(F)F)cc2Cl)cc1 [compound 126]
- mortality at 10 ppm [1]: 100%
- mortality at 1 ppm [2]: 100%
- mortality at 800 ppm [2]: 100%

Structure (SMILES): CN(C(=O)NC(=O)c1c(F)cccc1F)c1ccc(Oc2ccc(C(F)(F)F)cc2)cc1 [compound 40]
- mortality at 10 ppm [1]: 90%

Structure (SMILES): CN(C(=O)NC(=O)c1c(F)cccc1F)c1ccc(-c2ccc(Cl)cc2)c(F)c1 [Compound No. 31, N-[4'-chloro-2-fluoro-4biphenylyl)-N'-(2,6-difluorobenzoyl)-N-methylurea]
- inhibition at 100 µg/g [7]: 100%

Structure (SMILES): Cc1cc(N(C)C(=O)NC(=O)c2c(F)cccc2F)ccc1Oc1ncc(C(F)(F)F)cc1Cl [Compound No. 76]
- mortality at 10 ppm [1]: 100%
